The nature of data set [1]: HPLC/EC determination of daidzein and equol levels in blood serum and urine after the BLDG formula. To be noted: for concentration at 1 day / concentration at 7 day / concentration at 21 day: human, oral; for concentration at 1 day: Day 1, plasma; for concentration at 7 day: Day 7, plasma. As for the experimental part: The subject's diet was limited to 20 grams of saturated fat per day. The subject also consumed a healthy amount of grains, fruits and vegetables.
Blood serum and urine samples were taken on days 1, 7 and 21 and the samples were sent to an independent laboratory for analysis.
Equol in the blood serum was tested (untreated) as unbound to sex hormone-binding globulin (SHBG).

The conditions of data set [2]: in vitro; cited from earlier work.
Data set [3] relates to androgenic alopecia (hair loss). Nature of the data set: Observed effects on androgenic alopecia (hair loss). The class given is in vivo, human. To be noted: inulin supplements 4 grams daily, one individual. From the text:
The goal of the first experiment, performed in June 2006, was to investigate the ability for the BLDG formula to show both objective and subjective results. Objective results included blood and urine samples testing for the presence of equol. Subjective results included the documentation of observed effects on androgenic alopecia (hair loss) and acne vulgaris.
The test subject was a person, in good overall health. Subject was physically active, had adequate nutrition and was not taking any drugs or supplements that were known to cause hair loss or acne.
The subject was experiencing a high degree of shedding of the hair from areas of the scalp consistent with male pattern baldness. Miniaturization of the hair follicles on the scalp was noticeable along the hair line, part line and vertex upon close observation. […] Generally, the subject would have been considered a Class II on the Norwood-Hamilton scale, but with some increased vertex thinning more attributable to a Class III.

[4] abbreviates: Day 21, urine, BLDG formula regimen equivalent to Example 1.
The mark [5] stands for this setting: plasma, unbound equol, Mean, BLDG formula regimen equivalent to Example 1.
[6] abbreviates: plasma, unbound equol, ng/ml I, BLDG formula regimen equivalent to Example 1.
The mark [7] stands for this setting: plasma, unbound equol, ng/ml II, BLDG formula regimen equivalent to Example 1.

In the case of `O=c1c(-c2ccc(O)cc2)coc2cc(O)ccc12` [Daidzein, 4,7-Dihydroxyisoflavone], in data set [1] (setting [4]), the “daidzein, Mean” value came to 43974.11 ng/mL; the “daidzein, ng/ml I” value is 44246.59 ng/mL; the “daidzein, ng/ml II” value was 43701.63 ng/mL. For the same compound, the “increase in daidzein levels between Day 7 and Day 21” value in data set [1] (blood serum, BLDG formula) is on record as 45%.
On to `Oc1ccc([C@H]2COc3cc(O)ccc3C2)cc1` [S-equol], for which the “increase in equol concentration between Day 7 and Day 21” value in data set [1] (blood serum, BLDG formula) came out at 3%. Also, the concentration at 1 day in data set [1] (setting [5]), in data set [1] (setting [6]) and in data set [1] (setting [7]) was 0 ng/mL throughout. Besides, the concentration at 7 day in data set [1] (setting [5]) came to 127 ng/mL; in data set [1] (setting [6]) it was 137 ng/mL; in data set [1] (setting [7]) it was 117 ng/mL. The concentration at 21 day in data set [1] (plasma, unbound equol, Mean, Day 21, plasma, BLDG formula regimen equivalent to Example 1) amounted to 131 ng/mL; in data set [1] (plasma, unbound equol, ng/ml I, Day 21, plasma, BLDG formula regimen equivalent to Example 1), 122 ng/mL; in data set [1] (plasma, unbound equol, ng/ml II, Day 21, plasma, BLDG formula regimen equivalent to Example 1) it was 141 ng/mL; in data set [1] (urine, equol, Mean, Day 21, urine, BLDG formula regimen equivalent to Example 1), 638 ng/mL; in data set [1] (urine, equol, ng/ml I, Day 21, urine, BLDG formula regimen equivalent to Example 1) it was 613 ng/mL; in data set [1] (urine, equol, ng/ml II, Day 21, urine, BLDG formula regimen equivalent to Example 1) it was 662 ng/mL. The “blood levels that may be required to fully mitigate DHT at normal levels of circulation in men” value in data set [2] was 100 ng/mL.
Take inulin: the “effect of added inulin on BLDG dosage needed” value in data set [3] was “able to cut his BLDG dosage in half”.

These data come from patent US20120251511A1, “COMPOSITION AND PRODUCTS FOR ENABLING THE PRODUCTION OF EQUOL IN VIVO” (priority 2011, published 2012).
